Where two headings read alike, the source gives them in different places.

In one experiment the target is Histamine H3 receptor. The experiment can be described thus: In Vitro Histamine H3 Receptor Binding Analysis ([3H]-N-alpha-methylhistamine displacement, rat cortical membranes). The note with it: [3H]-N-alpha-methylhistamine 0.8-1.2 nM, pH 7.4, 40 min, 25° C, read-out: Histamine H3 Receptor Binding Affinities, H3 Receptor Ki. The protocol: Histamine H3 receptor affinity was determined in rat cortical membranes using the H3 selective agonist ligand, [^3 H]-N^α -methylhistamine (78.9 Ci/mole, DuPont NEN Research Products, Boston, Mass.) according to the method of West et al., (1990) Mol. Pharmacol. 38: 610-613 with modifications. Briefly, animals were sacrificed by decapitation and the cerebral cortex was rapidly removed. Rat cortices were mechanically homogenized with an Omni 1000 motor driven homogenizer in 10 volumes (wt/vol) of Krebs-Ringers Hepes buffer (pH 7.4) containing the following protease inhibitors: EDTA (10 mM), PMSF (0.1 mM), chymostatin (0.2 mg/50 mL) and leupeptin (0.2 mg/50 mL). The homogenate was centrifuged in a Sorvall at ~40,000×g for 30 min. The pellet was resuspended by mechanical homogenization in 25 mL water and lysed on ice for 30 min. The homogenate was recentrifuged and the membrane lysis was repeated. The membranes were recentrifuged and the final pellet was resuspended in 14 volumes of water to give approximately 200 μg protein/100 μl final concentration. The suspension was stored at -80° prior to use. Protein concentrations were determined by Coomassie Plus Protein Assay (Pierce, Rockford, Ill.).
Nonspecific binding (NSB) was accounted for by the inclusion of thioperamide (10 μM). Samples were incubated for 40 minutes at 25° C. The samples were filtered through glass fiber strips, pre-washed with 0.3% polyethyleneimine, using a Brandell cell harvester. The filters were rapidly washed three times with 4 ml of 25 mm Tris buffer containing 145 mM NaCl (pH 7.4, 4° C.). Filters were transferred to polyethylene mini-vials and counted in 3.5 ml of scintillation fluid (Ecolume, ICN Biomedicals, Inc.). […] Saturation and competition experiments were analyzed with the ReceptorFit saturation and competition curve fitting programs (Lundon Software, Ind., Cleveland, Ohio).

A further experiment deals with arousal EEG pattern. Conditions: intraventricular, rabbits; cited from earlier work.
Experiment [1] concerns spontaneous locomotor activity, grooming and exploratory behavior. The note with it: intraventricular, saline and pentobarbital-treated rats; cited from earlier work.
The subject of experiment [2] is H3 receptor. Conditions: cat; cited from earlier work.
Experiment [3] has as its system H3 receptor. The note with it: rats; cited from earlier work.
A further experiment has as its system histamine. The note with it: in vivo; cited from earlier work.
The subject of experiment [4] is electrically-induced convulsions. The note with it: cited from earlier work.

Turning to `C(=CC1CC1c1c[nH]cn1)CCC1CCCCC1` [Example 24, (1S,2S)-trans-4-(2-(4-cyclohexylbut-cis-1-enyl)cyclopropyl)imidazole], the inhibition constant Ki on Histamine H3 receptor is 108 ± 3.9 nM.

For `C(=CC1CC1c1c[nH]cn1)CCC1CCCCC1` [Example 25, (1S,2S)-trans-4-(2-(4-cyclohexylbut-trans-1-enyl)cyclopropyl)imidazole], the Ki on Histamine H3 receptor worked out at 56 ± 9 nM.

Consider `O=C(NCCCC1CCCCC1)C1CC1c1c[nH]cn1` (centres unmarked) [Example 30], for which the inhibition constant Ki at Histamine H3 receptor was 42 ± 7 nM.

Turning to `NCCc1c[nH]cn1` [histamine], the “arousal EEG pattern” value in the experiment on arousal EEG pattern is on record as “induces the appearances of an arousal EEG pattern”. Further, in experiment [1], the “spontaneous locomotor activity, grooming, and exploratory behavior” value was “increased spontaneous locomotor activity, grooming and exploratory behavior”.

Take `S=C(NC1CCCCC1)N1CCC(c2cnc[nH]2)CC1` [thioperamide]: the wakefulness entry with H3 receptor [2] is “enhanced wakefulness in a dose-dependent fashion”. In the experiment on H3 receptor [3], the “slow wave and REM sleep” value is “decrease slow wave and REM sleep”; the wakefulness entry was “increase wakefulness”. Also, the “synthesis and release of histamine” value in the experiment on histamine is “increase in synthesis and release of histamine”. The “durations of every convulsive phase” value in experiment [4] (electrically-induced convulsions) was “significantly and dose-dependently decrease the durations of every convulsive phase”. The electroconvulsive threshold result in experiment [4] (in vivo) is recorded as “increase the electroconvulsive threshold”.

What is called Ki is the dissociation constant of the complex between target and ligand, obtained from inhibition or displacement.

These data come from patent US5990317A, “2-(1H-4(5)-imidazoyl) cyclopropyl compounds” (Gliatech, Inc., priority 1998, dated 1999).
